For this experiment, the system named is M. catarrhalis A894. As to the kind of experiment: Minimal inhibitory concentration (MIC), microdilution method in cation-adjusted Mueller-Hinton Broth (CLSI M7-A7). It counts as cell-based. Conditions: Moraxella catarrhalis, strain A894. How it is done: Minimal inhibitory concentrations (MICs; mg/1) were determined in cation-adjusted Mueller-Hinton Broth by a microdilution method following the description given in “Methods for Dilution Antimicrobial Susceptibility Tests for Bacteria that Grow Aerobically”, Approved standard, 7th ed., Clinical and Laboratory Standards Institute (CLSI) Document M7-A7, Wayne, Pa., USA, 2006.
Background: Dilution methods test growth across graded concentrations, often in twofold steps.
As for `O=C1CSc2ccc(N3C[C@H](CCNCC4CN5C(=O)CCc6ccc(F)c4c65)OC3=O)cc2N1` (mixture of isomers) [Example 29, (1RS)-9-fluoro-1-({2-[(S)-2-oxo-3-(3-oxo-3,4-dihydro-2H-benzo[1,4]thiazin-6-yl)-oxazolidin-5-yl]-ethylamino}-methyl)-1,2,5,6-tetrahydro-pyrrolo[3,2,1-ij]quinolin-4-one], the MIC (in general, the lowest concentration that inhibits growth of the organism) was no more than 0.031 µg/mL.

Take `O=C1CSc2ccc(N3C[C@H](CNCC4Cn5c(=O)ccc6ccc(F)c4c65)OC3=O)cc2N1` (mixture of isomers) [Example 30, (1RS)-9-fluoro-1-({[(S)-2-oxo-3-(3-oxo-3,4-dihydro-2H-benzo[1,4]thiazin-6-yl)-oxazolidin-5-ylmethyl]-amino}-methyl)-1,2-dihydro-pyrrolo[3,2,1-ij]quinolin-4-one]: the MIC worked out at 0.031 µg/mL.

Regarding `O=C1O[C@H](CNCC2Cn3c(=O)ccc4ccc(F)c2c43)CN1c1ccc2c(c1)OCCO2` (mixture of isomers) [Example 31, (1RS)-1-({[(R)-3-(2,3-dihydro-benzo[1,4]dioxin-6-yl)-2-oxo-oxazolidin-5-ylmethyl]-amino}-methyl)-9-fluoro-1,2-dihydro-pyrrolo[3,2,1-ij]quinolin-4-one], it took 16 µg/mL to inhibit growth (MIC).

As to `O=C1COc2ccc(N3C[C@@H](CNCC4Cn5c(=O)ccc6ccc(F)c4c65)OC3=O)cc2N1` (mixture of isomers) [Example 32, (1RS)-9-fluoro-1-({[(R)-2-oxo-3-(3-oxo-3,4-dihydro-2H-benzo[1,4]oxazin-6-yl)-oxazolidin-5-ylmethyl]-amino}-methyl)-1,2-dihydro-pyrrolo[3,2,1-ij]quinolin-4-one], the MIC is 0.031 µg/mL.

With `Cc1ccc(N2C[C@@H](CNCC3Cn4c(=O)ccc5ccc(F)c3c54)OC2=O)cc1F` (mixture of isomers) [Example 33, (1RS)-9-fluoro-1-({[(R)-3-(3-fluoro-4-methyl-phenyl)-2-oxo-oxazolidin-5-ylmethyl]-amino}-methyl)-1,2-dihydro-pyrrolo[3,2,1-ij]quinolin-4-one], it took 16 µg/mL to inhibit growth (MIC).

In the case of `O=C1CSc2ccc(N3C[C@@H](CCNCC4Cn5c(=O)ccc6nccc4c65)OC3=O)cc2N1` (mixture of isomers) [Example 34, (RS)-4-({2-[(R)-2-oxo-3-(3-oxo-3,4-dihydro-2H-benzo[1,4]thiazin-6-yl)-oxazolidin-5-yl]-ethylamino}-methyl)-4,5-dihydro-pyrrolo[3,2,1-de][1,5]naphthyridin-7-one], the MIC is no more than 0.031 µg/mL.

For `O=C1CSc2ccc(N3C[C@@H](CCCNC4Cn5c(=O)ccc6cccc4c65)OC3=O)cc2N1` (mixture of isomers) [Example 35, (RS)-1-{3-[(R)-2-oxo-3-(3-oxo-3,4-dihydro-2H-benzo[1,4]thiazin-6-yl)-oxazolidin-5-yl]-propylamino}-1,2-dihydro-pyrrolo[3,2,1-ij]quinolin-4-one], the MIC is no more than 0.031 µg/mL.

As for `CCCc1ccc(N2C[C@@H](CNCC3Cn4c(=O)ccc5ccc(F)c3c54)OC2=O)cc1` (mixture of isomers) [Example 37, (RS)-9-fluoro-1-({[(R)-2-oxo-3-(4-propyl-phenyl)-oxazolidin-5-ylmethyl]-amino}-methyl)-1,2-dihydro-pyrrolo[3,2,1-ij]quinolin-4-one], 1 µg/mL was the least that counted as inhibitory (MIC).

Turning to `CCCCc1ccc(N2C[C@@H](CNCC3Cn4c(=O)ccc5ccc(F)c3c54)OC2=O)cc1` (mixture of isomers) [Example 38, (RS)-1-({[(R)-3-(4-butyl-phenyl)-2-oxo-oxazolidin-5-ylmethyl]-amino}-methyl)-9-fluoro-1,2-dihydro-pyrrolo[3,2,1-ij]quinolin-4-one], the MIC worked out at 16 µg/mL.

`CCOc1ccc(N2C[C@@H](CCNCC3Cn4c(=O)ccc5ccc(F)c3c54)OC2=O)cc1` (mixture of isomers) [Example 44, (RS)-1-({2-[(R)-3-(4-ethoxy-phenyl)-2-oxo-oxazolidin-5-yl]-ethylamino}-methyl)-9-fluoro-1,2-dihydro-pyrrolo[3,2,1-ij]quinolin-4-one] yielded an MIC of 0.125 µg/mL.

`CCCc1ccc(N2C[C@@H](CCNCC3Cn4c(=O)ccc5ccc(F)c3c54)OC2=O)cc1` (mixture of isomers) [Example 45, (RS)-9-fluoro-1-({2-[(R)-2-oxo-3-(4-propyl-phenyl)-oxazolidin-5-yl]-ethylamino}-methyl)-1,2-dihydro-pyrrolo[3,2,1-ij]quinolin-4-one] returned an MIC of 0.063 µg/mL.

For the compound `O=C1O[C@H](CCNCC2Cn3c(=O)ccc4ccc(F)c2c43)CN1c1ccc2c(c1)OCCO2` (mixture of isomers) [Example 46, (RS)-1-({2-[(R)-3-(2,3-dihydro-benzo[1,4]dioxin-6-yl)-2-oxo-oxazolidin-5-yl]-ethylamino}-methyl)-9-fluoro-1,2-dihydro-pyrrolo[3,2,1-ij]quinolin-4-one], the minimal inhibitory concentration (MIC) was no more than 0.031 µg/mL.

In turn, `O=C1CSc2ccc(N3C[C@@H](CCCNCC4Cn5c(=O)ccc6ccc(F)c4c65)OC3=O)cc2N1` (mixture of isomers) [Example 51, (RS)-9-fluoro-1-({3-[(R)-2-oxo-3-(3-oxo-3,4-dihydro-2H-benzo[1,4]thiazin-6-yl)-oxazolidin-5-yl]-propylamino}-methyl)-1,2-dihydro-pyrrolo[3,2,1-ij]quinolin-4-one] came in with an MIC of no more than 0.031 µg/mL.

`O=C1COc2ccc(N3C[C@@H](CCCNCC4Cn5c(=O)ccc6ccc(F)c4c65)OC3=O)cc2N1` (mixture of isomers) [Example 52, (RS)-9-fluoro-1-({3-[(R)-2-oxo-3-(3-oxo-3,4-dihydro-2H-benzo[1,4]oxazin-6-yl)-oxazolidin-5-yl]-propylamino}-methyl)-1,2-dihydro-pyrrolo[3,2,1-ij]quinolin-4-one]: the minimum inhibitory concentration (MIC) was no more than 0.031 µg/mL.

In the case of `O=C1CSc2ccc(N3C[C@H](CCNCC4Cn5c(=O)cnc6cccc4c65)OC3=O)cc2N1` (mixture of isomers) [Example 56, (RS)-6-({2-[(S)-2-oxo-3-(3-oxo-3,4-dihydro-2H-benzo[1,4]thiazin-6-yl)-oxazolidin-5-yl]-ethylamino}-methyl)-5,6-dihydro-pyrrolo[1,2,3-de]quinoxalin-3-one], the MIC was no more than 0.031 µg/mL.

For the compound `CCCc1ccc(N2C[C@@H](CCNC3Cn4c(=O)ccc5ccc(F)c3c54)OC2=O)cc1` (mixture of isomers) [Example 59, (RS)-9-fluoro-1-{2-[(R)-2-oxo-3-(4-propyl-phenyl)-oxazolidin-5-yl]-ethylamino}-1,2-dihydro-pyrrolo[3,2,1-ij]quinolin-4-one], the MIC came out at 4 µg/mL.

`O=C1O[C@@H](CCNCC2Cn3c(=O)ccc4ccc(F)c2c43)CN1c1ccc2c(c1)OCCO2` (mixture of isomers) [Example 60, (RS)-1-({2-[(S)-3-(2,3-dihydro-benzo[1,4]dioxin-6-yl)-2-oxo-oxazolidin-5-yl]-ethylamino}-methyl)-9-fluoro-1,2-dihydro-pyrrolo[3,2,1-ij]quinolin-4-one] gave an MIC of no more than 0.031 µg/mL.

With `O=C1CSc2ccc(N3C[C@@H](CNCC4Cn5c(=O)ccc6cccc4c65)OC3=O)cc2N1` (mixture of isomers) [Example 63, (RS)-1-({[(R)-2-oxo-3-(3-oxo-3,4-dihydro-2H-benzo[1,4]thiazin-6-yl)-oxazolidin-5-ylmethyl]-amino}-methyl)-1,2-dihydro-pyrrolo[3,2,1-ij]quinolin-4-one], the MIC was determined as 0.031 µg/mL.

`O=C1CSc2ccc(N3C[C@@H](CN(CCCO)CCC4Cn5c(=O)ccc6ccc(F)c4c65)OC3=O)cc2N1` (mixture of isomers) [Example 68, (RS)-9-fluoro-1-(2-{(3-hydroxy-propyl)-[(R)-2-oxo-3-(3-oxo-3,4-dihydro-2H-benzo[1,4]thiazin-6-yl)-oxazolidin-5-ylmethyl]-amino}-ethyl)-1,2-dihydro-pyrrolo[3,2,1-ij]quinolin-4-one] showed a minimal inhibitory concentration (MIC) of no more than 0.031 µg/mL.

Compound `O=C1CSc2ccc(N3C[C@@H](CN(CCO)CCC4Cn5c(=O)ccc6ccc(F)c4c65)OC3=O)cc2N1` (mixture of isomers) [Example 69, (RS)-9-fluoro-1-(2-{(2-hydroxy-ethyl)-[(R)-2-oxo-3-(3-oxo-3,4-dihydro-2H-benzo[1,4]thiazin-6-yl)-oxazolidin-5-ylmethyl]-amino}-ethyl)-1,2-dihydro-pyrrolo[3,2,1-ij]quinolin-4-one] had an MIC of no more than 0.031 µg/mL.

The compound `O=C1COc2ccc(N3C[C@@H](CCCNC4Cn5c(=O)ccc6ccc(F)c4c65)OC3=O)nc2N1` (mixture of isomers) [Example 70, (RS)-9-fluoro-1-{3-[(R)-2-oxo-3-(3-oxo-3,4-dihydro-2H-pyrido[3,2-b][1,4]oxazin-6-yl)-oxazolidin-5-yl]-propylamino}-1,2-dihydro-pyrrolo[3,2,1-ij]quinolin-4-one] registered an MIC of no more than 0.031 µg/mL.

Compound `O=C1CSc2ccc(N3C[C@H](CNCC4Cn5c(=O)ccc6cccc4c65)OC3=O)cc2N1` (mixture of isomers) [Example 81, (RS)-1-({[(S)-2-oxo-3-(3-oxo-3,4-dihydro-2H-benzo[1,4]thiazin-6-yl)-oxazolidin-5-ylmethyl]-amino}-methyl)-1,2-dihydro-pyrrolo[3,2,1-ij]quinolin-4-one] registered an MIC of no more than 0.031 µg/mL.

As to `O=C1COc2ccc(N3C[C@@H](CNCC4Cn5c(=O)ccc6cccc4c65)OC3=O)cc2N1` (mixture of isomers) [Example 82, (RS)-1-({[(R)-2-oxo-3-(3-oxo-3,4-dihydro-2H-benzo[1,4]oxazin-6-yl)-oxazolidin-5-ylmethyl]-amino}-methyl)-1,2-dihydro-pyrrolo[3,2,1-ij]quinolin-4-one], the MIC worked out at 0.25 µg/mL.

`O=C1CSc2ccc(N3C[C@H](CCNC4Cn5c(=O)ccc6ncc(F)c4c65)OC3=O)cc2N1` (mixture of isomers) [Example 84, (RS)-3-fluoro-4-{2-[(S)-2-oxo-3-(3-oxo-3,4-dihydro-2H-benzo[1,4]thiazin-6-yl)-oxazolidin-5-yl]-ethylamino}-4,5-dihydro-pyrrolo[3,2,1-de][1,5]naphthyridin-7-one] showed an MIC of 0.063 µg/mL.

Source of the values: US9822114B2, “Tricyclic oxazolidinone antibiotic compounds” (Idorsia Pharmaceuticals Ltd, priority 2008, dated 2017).
